Patent US20100125085A1, “PYRIDOINDOLE MODULATORS OF NMDA RECEPTOR AND ACETYLCHOLINESTERASE” (AUSPEX PHARMACEUTICALS, INC., priority 2008, published 2010)

Tests used:
[1] = sites of metabolism of dimebolin in humans; type: in vivo; conditions: discoveries made in our laboratory and literature
[2] = cited from earlier work

## Cc1ccc2c(c1)c1c(n2CCc2ccc(C)nc2)CCN(C)C1 [dimebolin, 2,8-dimethyl-5-[2-(6-methyl-pyridin-3-yl)-ethyl]-2,3,4,5-tetrahydro-1H-pyrido[4,3-b]indole]
[1]
  sites of metabolism: metabolized in humans at the pyridyl methyl group, the tolyl methyl group, the ethylene linker, and the N-methyl group
[2]; >5% of patients and at least twice the incidence of placebo
  common adverse events: dry mouth, depressed mood/depression, and hyperhidrosis
[2]; double-blind study, dimebolin group
  patients reporting at least 1 serious adverse effect: 3%
[2]; double-blind study, patients taking dimebolin
  patients reporting at least 1 adverse effect: 79%
